Our source for the IC50 values is patent US20240270741A1 (Cogent Biosciences, Inc., priority 2023, published 2024).

Structures are written as SMILES. Counter-ions that a name gives are not always drawn.

In one assay the target is FGFR2 (Homo sapiens, UniProt P21802). Briefly: FGFR wild type enzyme assay (HTRF KinEASE-TK), FGFR2. Conditions: Enz FGFR2 (nM). On the technique in general: In TR-FRET formats the signal depends on donor and acceptor labels being close together.
Sequence of FGFR2 (P21802 399-821 limits assumed): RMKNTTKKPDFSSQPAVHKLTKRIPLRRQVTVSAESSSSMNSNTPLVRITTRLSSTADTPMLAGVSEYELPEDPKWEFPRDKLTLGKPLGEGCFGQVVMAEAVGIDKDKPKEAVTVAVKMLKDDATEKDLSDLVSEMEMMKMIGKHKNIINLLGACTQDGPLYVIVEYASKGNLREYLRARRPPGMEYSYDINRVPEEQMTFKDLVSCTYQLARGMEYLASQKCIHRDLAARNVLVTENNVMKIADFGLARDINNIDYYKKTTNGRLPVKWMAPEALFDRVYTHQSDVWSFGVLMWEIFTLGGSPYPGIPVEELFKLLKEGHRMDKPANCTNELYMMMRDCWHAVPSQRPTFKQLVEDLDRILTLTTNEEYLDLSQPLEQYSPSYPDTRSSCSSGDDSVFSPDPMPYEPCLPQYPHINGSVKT
Broadly, the IC50 is the concentration that gives 50% inhibition. Read a high IC50 as lower potency. Consider `Cc1ccc(F)c(Sc2cc(-c3cnn(C4CCNCC4)c3)cn3ncc(C#N)c23)n1` [Example 70, 4-((3-fluoro-6-methylpyridin-2-yl)thio)-6-(1-(piperidin-4-yl)-1H-pyrazol-4-yl)pyrazolo[1,5-a]pyridine-3-carbonitrile, HCl], for which the half-maximal inhibitory concentration (IC50) stood at 3 nM.

Regarding `Cc1c(-c2cc(Sc3ncccc3F)c3c(C#N)cnn3c2)cnn1[C@@H]1CCCNC1` [Example 102, 4-[(3-fluoro-2-pyridyl)sulfanyl]-6-[5-methyl-1-[(3R)-3-piperidyl]pyrazol-4-yl]pyrazolo[1,5-a]pyridine-3-carbonitrile], 6 nM corresponded to half-maximal inhibition (IC50).

Consider `CC(=O)N1CCC(n2cc(-c3cc(Sc4ccccn4)c4c(C#N)cnn4c3)cn2)CC1` [Example 93, 6-[1-(1-acetyl-4-piperidyl)pyrazol-4-yl]-4-(2-pyridylsulfanyl)pyrazolo [1,5-a]pyridine-3-carbonitrile], for which it took 3 nM to reach half-maximal inhibition (IC50).

The molecule `Cc1c(-c2cc(Sc3ccccc3C#N)c3c(C#N)cnn3c2)cnn1[C@H]1CCNC1` [Example 122, 4-(2-cyanophenyl)sulfanyl-6-[5-methyl-1-[(3S)-pyrrolidin-3-yl]pyrazol-4-yl]pyrazolo[1,5-a]pyridine-3-carbonitrile] registered an IC50 of 1 nM.

The assay is the same for the next values; noted with them: Enz FGFR2 (nM), FGFR2 wild type enzyme.
Take `Cc1c(-c2cc(Sc3ncccc3F)c3c(C#N)cnn3c2)cnn1[C@H](C)CN(C)C` [Example 180, (R)-6-(1-(1-(dimethylamino)propan-2-yl)-5-methyl-1H-pyrazol-4-yl)-4-((3-fluoropyridin-2-yl)thio)pyrazolo[1,5-a]pyridine-3-carbonitrile]: the concentration for half-maximal inhibition (IC50) came to 15 nM.

Regarding `Cc1c(-c2cc(Sc3ccc(F)cc3C#N)c3c(C#N)cnn3c2)cnn1[C@H]1C[C@H]2CC[C@@H](C1)N2C` [Example 300, 4-((2-cyano-4-fluorophenyl)thio)-6-(5-methyl-1-((1R,3r,5S)-8-methyl-8-azabicyclo[3.2.1]octan-3-yl)-1H-pyrazol-4-yl)pyazolo[1,5-a]pyridine-3-carbonitrile], 1 nM corresponded to half-maximal inhibition (IC50).

Turning to `N#Cc1cnn2cc(-c3cnn([C@H]4CC[C@@H](O)CC4)c3)cc(Sc3ncccc3F)c12` [Example 293, 4-((3-fluoropyridin-2-yl)thio)-6-(1-((1s,4s)-4-hydroxycyclohexyl)-1H-pyrazol-4-yl)pyrazolo[1,5-a]pyridine-3-carbonitrile], the IC50 was determined as 1 nM.

The molecule `Cc1c(-c2cc(Sc3ccccn3)c3c(C#N)cnn3c2)cnn1[C@H]1CC[C@@H](O)CC1` [Example 302] showed an IC50 of 4 nM.

The molecule `CC(=O)N1[C@@H]2CC[C@H]1C[C@H](n1ncc(-c3cc(Sc4ncccc4F)c4c(C#N)cnn4c3)c1C)C2` [Example 263, 6-(1-((1R,3s,5S)-8-acetyl-8-azabicyclo[3.2.1]octan-3-yl)-5-methyl-1H-pyrazol-4-yl)-4-((3-fluoropyridin-2-yl)thio)pyrazolo[1,5-a]pyridine-3-carbonitrile] had an IC50 of 3 nM. The IC50 values of the last two molecules are within 1.5-fold of each other.

In turn, `Cc1c(-c2cc(Sc3ncccc3F)c3c(C#N)cnn3c2)cnn1C[C@H]1CCCNC1` [Example 206, (S)-4-((3-fluoropyridin-2-yl)thio)-6-(5-methyl-1-(piperidin-3-ylmethyl)-1H-pyrazol-4-yl)pyrazolo[1,5-a]pyridine-3-carbonitrile] yielded a concentration for half-maximal inhibition (IC50) of 3 nM.

Still in this assay, the particulars now being: Enz FGFR2 (nM), FGFR2 wild type enzyme assay.
Molecule `CN1CCC[C@H](n2cc(-c3cc(Sc4ccccc4C#N)c4c(C#N)cnn4c3)cn2)C1` [Example 515, (S)-4-((2-cyanophenyl)thio)-6-(1-(1-methylpiepridin-3-yl)-1H-pyrazol-4-yl)pyrazolo[1,5-a]pyridine-3-carbonitrile] displayed an IC50 of 1 nM.

Take `N#Cc1cc(F)ccc1Sc1cc(-c2ccc(N3C[C@@H](O)[C@H](O)C3)nc2)cn2ncc(C#N)c12` [Example 629, 4-((2-cyano-4-fluorophenyl)thio)-6-(6-((3R,4R)-3,4-dihydroxypyrrolidin-1-yl)pyridin-3-yl)pyrazolo[1,5-a]pyridine-3-carbonitrile]: the half-maximal inhibitory concentration (IC50) came to 1.6 nM.

`Cc1c(-c2cc(Sc3ccc(F)cc3C#N)c3c(C#N)cnn3c2)cnn1[C@@H]1CCC[C@@H](O)C1` [Example 497, 4-((2-cyano-4-fluorophenyl)thio)-6-(1-((1R,3R)-3-hydroxycyclohexyl)-5-methyl-1H-pyrazol-4-y)pyrazolo[1,5-a]pyridine-3-carbonitrile] gave a half-inhibitory concentration (IC50) of 1 nM.

`N#Cc1cc(F)ccc1Sc1cc(-c2ccc(N3C[C@@H](O)[C@@H](O)C3)nc2)cn2ncc(C#N)c12` [Example 628, 4-((2-cyano-4-fluorophenyl)thio)-6-(6-((3R,4S)-3,4-dihydroxypyrrolidin-1-yl)pyridin-3-yl)pyrazolo[1,5-a]pyridine-3-carbonitrile] gave an IC50 of 1 nM.

Regarding `Cc1c(-c2cc(Sc3ccc(F)cc3C#N)c3c(C#N)cnn3c2)cnn1[C@@H]1CCC(C)(C)NC1` [Example 528, 4-(2-cyano-4-fluoro-phenyl)sulfanyl-6-[1-[(3R)-6,6-dimethyl-3-piperidyl]-5-methyl-pyrazol-4-yl]pyrazolo[1,5-a]pyridine-3-carbonitrile], half-maximal inhibition (IC50) required 2.5 nM.

In the case of `COC(=O)N1CCC(n2ncc(-c3cc(Sc4ccc(F)cc4C#N)c4c(C#N)cnn4c3)c2C)CC1` [Example 361, methyl 4-(4-(3-cyano-4-((2-cyano-4-fluorophenyl)thio)pyrazolo [1,5-a]pyridin-6-yl)-5-methyl-1H-pyrazol-1-yl)piperidine-1-carboxylate], the half-maximal inhibitory concentration (IC50) is 2 nM.

`CC(=O)N[C@H]1CC[C@@H](n2cc(-c3cc(Sc4ncccc4F)c4c(C#N)cnn4c3)c(C)n2)CC1` [Example 393, N-((1s,4s)-4-(4-(3-cyano-4-((3-fluoropyridin-2-yl)thio)pyrazolo[1,5-a]pyridin-6-yl)-3-methyl-1H-pyrazol-1-yl)cyclohexyl)acetamide] registered a 50% inhibitory concentration (IC50) of 6 nM.

For `CC(=O)N1CC[C@H](n2cc(-c3cc(Sc4ccccc4C#N)c4c(C#N)cnn4c3)cn2)C1` [Example 453, (S)-6-(1-(1-acetylpyrrolidin-3-yl)-1H-pyrazol-4-yl)-4-((2-cyanophenyl)thio)pyrazolo [1,5-a]pyridine-3-carbonitrile], half-maximal inhibition (IC50) was put at 0.4 nM.

Molecule `N#Cc1ccccc1Sc1cc(-c2ccc(N3CCO[C@@H](CO)C3)nc2)cn2ncc(C#N)c12` [Example 648, (R)-4-((2-cyanophenyl)thio)-6-(6-(2-(hydroxymethyl)morpholi-no)pyridin-3-yl)pyrazolo[1,5-a]pyridine-3-carbonitrile] yielded a 50% inhibitory concentration (IC50) of 0.6 nM.

On to `Cc1c(-c2cc(Sc3ccc(F)cc3C#N)c3c(C#N)cnn3c2)cnn1C1CCOC1` (stereo not drawn) [Example 547, 4-((2-cyano-4-fluorophenyl)thio)-6-(5-methyl-1-(tetrahydrofuran-3-yl)-1H-pyrazol-4-yl)pyrazolo[1,5-a]pyridine-3-carbonitrile], for which the IC50 was found to be 3 nM.

In the case of `N#Cc1cnn2cc(-c3cnn(C[C@H](O)CO)c3)cc(Sc3ncccc3F)c12` [Example 523, (S)-6-(1-(2,3-dihydroxypropyl)-1H-pyrazol-4-yl)-4-((3-fluoropyridin-2-yl)thio)pyrazolo[1,5-a]pyridine-3-carbonitrile], half-maximal inhibition (IC50) was put at 2 nM.

Regarding `CN[C@]1(C)CC[C@H](n2ncc(-c3cc(Sc4ccccn4)c4c(C#N)cnn4c3)c2C)CC1` [Example 348, 6-(5-methyl-1-((1s,4s)-4-methyl-4-(methylamino)cyclohexyl)-1H-pyrazol-4-yl)-4-(pyridin-2-ylthio)pyrazolo[1,5-a]pyridine-3-carbonitrile], the IC50 came to 2 nM. In other words, the single-digit nanomolar range.

For the molecule `Cc1c(-c2cc(Sc3cccc(F)c3C#N)c3c(C#N)cnn3c2)cnn1C1CCN(C)CC1` [Example 356, 4-((2-cyano-3-fluorophenyl)thio)-6-(5-methyl-1-(1-methylpiperidin-4-yl)-1H-pyrazol-4-yl)pyrazolo[1,5-a]pyridine-3-carbonitrile], the IC50 was found to be 10 nM. This IC50 is about 5-fold higher than that of the molecule before.

Take `CO[C@H](C)C(=O)N1CCC(n2cc(-c3cc(Sc4ccccc4C#N)c4c(C#N)cnn4c3)cn2)CC1` [Example 565, (R)-4-((2-cyanophenyl)thio)-6-(1-(1-(2-methoxypropanoyl)piperidin-4-yl)-1H-pyrazol-4-yl)pyrazolo[1,5-a]pyridine-3-carbonitrile]: 0.5 nM corresponded to half-maximal inhibition (IC50).

For `Cc1c(-c2cc(Sc3ccccc3C#N)c3c(C#N)cnn3c2)cnn1C1CCN(C(=O)N(C)C)CC1` [Example 406, 4-(4-(3-cyano-4-((2-cyanophenyl)thio)pyrazolo [1,5-a]pyridin-6-yl)-5-methyl-1H-pyrazol-1-yl)-N,N-dimethylpiperidine-1-carboxamide], the concentration for half-maximal inhibition (IC50) turned out to be 1 nM.

With `Cc1cc(Sc2cc(-c3cnn(C4CCN(C)CC4)c3C)cn3ncc(C#N)c23)c(C#N)cc1F` [Example 371, 4-((2-cyano-4-fluoro-5-methylphenyl)thio)-6-(5-methyl-1-(1-methylpiperidin-4-yl)-1H-pyrazol-4-yl)pyrazolo[1,5-a]pyridine-3-carbonitrile], the IC50 worked out at 5 nM.

For the molecule `N#Cc1cnn2cc(-c3ccc(N4C[C@H](O)[C@@H](O)C4)nc3)cc(Sc3ncccc3F)c12` [Example 654, 6-(6-((3S,4S)-3,4-dihydroxypyrrolidin-1-yl)pyridin-3-yl)-4-((3-fluoropyridin-2-yl)thio)pyrazolo[1,5-a]pyridine-3-carbonitrile], the concentration for half-maximal inhibition (IC50) was found to be 3 nM.

As for `CN1CCN(c2ccc(-c3cc(Sc4ccc(F)cc4C#N)c4c(C#N)cnn4c3)cn2)CC1=O` [Example 610, 4-((2-cyano-4-fluorophenyl)thio)-6-(6-(4-methyl-3-oxopiperazin-1-yl)pyridin-3-yl)pyrazolo[1,5-a]pyridine-3-carbonitrile], the IC50 came out at 2 nM.

`CC1(C)C[C@H](n2cc(-c3cc(Sc4ncccc4F)c4c(C#N)cnn4c3)cn2)CN1` [Example 471, (S)-6-(1-(5,5-dimethylpyrrolidin-3-yl)-1H-pyrazol-4-yl)-4-((3-fluoropyridin-2-yl)thio)pyrazolo[1,5-a]pyridine-3-carbonitrile]: the half-inhibitory concentration (IC50) is 1 nM. This IC50 lies about 2-fold lower than the previous one.

`Cc1ccc(C#N)c(Sc2cc(-c3cnn(C4CCN(C)CC4)c3C)cn3ncc(C#N)c23)c1` [Example 357, 4-((2-cyano-5-methylphenyl)thio)-6-(5-methyl-1-(1-methylpiperidin-4-yl)-1H-pyrazol-4-yl)pyrazolo[1,5-a]pyridine-3-carbonitrile] gave an IC50 of 2 nM.
